From patent US6683079B2, “3-(amino-or aminoalkyl) pyridinone derivatives and their use for the treatment of HIV related diseases” (Centre National de la Recherche Scientifique, priority 1998, dated 2004)

Columns and labels:
HIV-1 strain 103 N = experiment: Retrovirucidal effect on HIV-1 strain 103 N (Table 3); assay type: cell-based
Method: (§1) HIV-1 viral suspensions were obtained by coculture of MT4 cells and H9 cells chronically infected by HIV-ILai isolate. 200 μl of a cell supernatant containing viral particles (HIV-ILai: 100 TCID50) were incubated at room temperature with various concentrations of different inhibitors. After 3 hours, virions were washed through 0.02 μm anopore membrane in 1.5 mL Vectaspin tube (Whatman) for 10 minutes at 5 000 g. Each of the three subsequent washes was performed in the same conditions after the viral concentrate was refilled with 500 μL of RPMI medium. Then, the viral concentrate was readjusted to the initial volume with RPMI plus 10% foetal calf serum (FCS). The residual infectivity was assayed on P4 cells as described by CHARNEAU et al. (1994, J. Mol. Biol., 241, 651-662). Briefly, P4 cells were plated using 100 μL of DMEM medium plus 10% FCS in 96 plate multi-wells at 20×10^5 cells per mL. After overnight incubation at 37° C., the supernatant was discarded and the viral preparation (200 μL) was added. One day later the wells were washed three times in PBS. Each well was refilled with 200 μL of a reaction buffer containing 50 mM Tris-HCl pH 8.5, 100 mM 2-mercaptoethanol, 0.05% Triton X-100 and 5 mM 4-methylumbelliferyl β-D-galactopyranoside (MUG). After 3 hours at 37° C., the level of the reaction was measured in a fluorescence microplate reader.
(§2) The retrovirucidal effect of each pyridinone derivative listed in table 3 has been assayed according to the teachings of example 2, excepted that the anti-viral effect has been tested on the two following HIV-1 strains:
b) HIV-1 strain 103 N which is a mutant strain bearing a point mutation in the reverse transcriptase gene leading to an enzyme wherein the initial Lys-103 residue is replaced for a Asn residue.
The HIV-1 103 N strain has also been described by SAHLBERG et al.,(1998, Antiviral Res., 37 (3): ASS) and BALZARiNI et al. (1996, Antimicrobial Agents and Chemotherapy, 40 (6): 1454-1466).

HIV-1 strain IIIB = experiment: Retrovirucidal effect on HIV-1 strain IIIB (Table 3); assay type: cell-based
Method: as §1, §2
a) HIV-1 strain IIIB (see example 2);

[1] = HIV-1 strain 103N (RT Lys-103 to Asn mutant), pIC50=-log IC50, IC50 in M

| SMILES | HIV1 pIC50 strain 103N (HIV-1 strain 103 N; [1]) | HIV1 pIC50 strain IIIB (HIV-1 strain IIIB; pIC50=-log IC50, IC50 in M) | HIV1 pIC50 strain 103N (HIV-1 strain 103 N; retrovirucidal effect, HIV-1 strain 103N (Lys-103 to Asn RT mutant), pIC50=-log IC50 (M)) | HIV1 pIC50 strain IIIB (HIV-1 strain IIIB; retrovirucidal effect, pIC50=-log IC50 (M)) |
| --- | --- | --- | --- | --- |
| CCc1c(C)[nH]c(=O)c(N(C)C)c1[S+]([O-])c1cc(C)cc(C)c1 (centres unmarked) [Compound 170] | 7.224 | 8.553 |  |  |
| CCc1c(C)[nH]c(=O)c(N(C)C)c1Cc1cc(Cl)cc(Cl)c1 [Compound 191] | 7.553 | 8.097 |  |  |
| CCOC(=O)Cn1c(C)c(CC)c(Cc2cc(C)cc(C)c2)c(N(C)C)c1=O [Compound 23] | <4 | 5.254 |  |  |
| Cc1cccc(C(=O)c2c(C)c(C)[nH]c(=O)c2N(C)C)c1 [Compound 96] | 6.37 | 7.824 |  |  |
| CCc1c(C)[nH]c(=O)c(N(C)CCCCCO)c1Cc1cccc(C)c1 [Compound 154] | 6.262 | 8.009 |  |  |
| CCc1c(C)[nH]c(=O)c(N)c1Cc1ccnc2ccccc12 [Compound 74] | <4 | <4 |  |  |
| CCc1c(Cc2cc(C)cc(C)c2)c(N(C)C)c(=O)n(CC)c1C [Compound 45] | 4.095 | 5.519 |  |  |
| CCc1c(C)[nH]c(=O)c(N(CC)CC)c1Cc1cc(C)cc(C)c1 [Compound 12] | 6.363 | 8.022 |  |  |
| CCCc1[nH]c(=O)c(N(C)C)c(Cc2cc(C)cc(C)c2)c1C [Compound 63] | 6.334 | 7.029 |  |  |
| CCc1c(C)[nH]c(=O)c(N)c1Cc1c(C)cc(C)cc1C [Compound 58] | <5 | <4 |  |  |
| CCc1c(C)[nH]c(=O)c(N)c1Cc1ccc2ccccc2c1 [Compound 7] | <4 | <4 |  |  |
| CCc1c(C)[nH]c(=O)c(N(C)C)c1COc1cccc(C)c1 [Compound 162] | 5.026 | 6.418 |  |  |
| CCc1c(C)[nH]c(=O)c(N(C)C)c1C(=O)c1cc(C)cc(C)c1 [Compound 35] | 7.987 | 8.585 |  |  |
| CCc1c(C)[nH]c(=O)c(N(C)C)c1Cc1ccc(-c2ccccc2)cc1 [Compound 51] | <5 | 5.384 |  |  |
| CCc1c(C)[nH]c(=O)c(N)c1CN(C)Cc1ccccc1 [Compound 97] | <4 | <4 |  |  |
| CCc1c(C)[nH]c(=O)c(N2CCCCC2)c1Cc1cc(C)cc(C)c1 [Compound 30] | 4.224 | 6.214 |  |  |
| Cc1cc(C)cc(Cc2cc(C)[nH]c(=O)c2N)c1 [Compound 100] | <4 | 4.871 |  |  |
| CCc1c(C)[nH]c(=O)c(N(C)CCOC)c1Cc1cccc(C)c1 [Compound 136] | 6.996 | 9 |  |  |
| CCc1c(C)[nH]c(=O)c(N)c1Cc1cccc(C(F)(F)F)c1 [Compound 50] | <5 | <5 |  |  |
| CCc1c(C)[nH]c(=O)c(N(C)C)c1CNc1ccc(C#N)cc1 [Compound 167] | 5.828 | 6.338 |  |  |
| CCc1c(C)[nH]c(=O)c(N)c1Cc1ccc(C(F)(F)F)cc1 [Compound 52] | <5 | <4 |  |  |
| CCc1c(C)[nH]c(=O)c(N(C)C)c1Sc1cccc(Br)c1 [Compound 193] | 7.245 | 8.481 |  |  |
| CCc1c(C)[nH]c(=O)c(N(C)C)c1Cc1ccc2ccccc2c1 [Compound 10] | 4.389 | 6.241 |  |  |
| CCc1c(C)[nH]c(=O)c(N(C)C)c1Cc1cccc(C)c1 [Compound 13] | 7.622 | 8.824 |  |  |
| CCc1c(C)[nH]c(=O)c(N(C)C)c1CNc1ncccn1 [Compound 171] | 4.74 | 5.895 |  |  |
| CCc1c(C)[nH]c(=O)c(N(C)CCOC)c1Cc1cc(C)cc(C)c1 [Compound 78] | 7.128 | 8.678 |  |  |
| CCCN(C)c1c(Cc2cc(C)cc(C)c2)c(CC)c(C)[nH]c1=O [Compound 47] | 6.968 | 7.767 |  |  |
| CCc1c(C)[nH]c(=O)c(N(C)C)c1Cc1ccccc1C [Compound 14] | 5.849 | 7.676 |  |  |

| SMILES | HIV1 pIC50 strain 103N (HIV-1 strain 103 N; [1]) | HIV1 pIC50 strain IIIB (HIV-1 strain IIIB; pIC50=-log IC50, IC50 in M) | HIV1 pIC50 strain 103N (HIV-1 strain 103 N; retrovirucidal effect, HIV-1 strain 103N (Lys-103 to Asn RT mutant), pIC50=-log IC50 (M)) | HIV1 pIC50 strain IIIB (HIV-1 strain IIIB; retrovirucidal effect, pIC50=-log IC50 (M)) |
| --- | --- | --- | --- | --- |
| CCc1c(C)[nH]c(=O)c(N(C)C)c1C(=O)c1ccc(OC)c(C)c1 [Compound 169] | 5.771 | 7.101 |  |  |
| CCc1c(C)[nH]c(=O)c(N(C)C)c1C(=O)c1cc(Br)cs1 [Compound 187] | 7.006 | 8.481 |  |  |
| CCc1c(C)[nH]c(=O)c(N(C)C)c1Sc1cc(C)cc(C)c1 [Compound 149] | 7.883 | 8.959 |  |  |
| CCCCNc1c(Cc2cc(C)cc(C)c2)c(CC)c(C)[nH]c1=O [Compound 69] | 5.655 | 6.891 |  |  |
| Cc1cc(C)cc(Cc2c(C)c(C)[nH]c(=O)c2N)c1 [Compound 32] | <5 | 6.104 |  |  |
| CCc1c(C)[nH]c(=O)c(N(C)CCOC)c1C(=O)c1cccc(C)c1 [Compound 175] | 7.717 | 8.921 |  |  |
| Cc1cccc(Cc2c(C)c(C)[nH]c(=O)c2N(C)C)c1 [Compound 86] | 5.936 | 7.863 |  |  |
| CCc1c(C)[nH]c(=O)c(N2CCOCC2)c1Cc1cc(C)cc(C)c1 [Compound 36] | <4 | 6.763 |  |  |
| CCc1c(C)[nH]c(=O)c(N(C)C)c1Sc1cccc(C)c1 [Compound 160] | 7.177 | 8.678 |  |  |
| CCc1c(C)[nH]c(=O)c(N(C)C)c1Cc1cccc(C)c1C [Compound 20] | 5.585 | 6.926 |  |  |
| CCc1c(Cc2cc(C)cc(C)c2)c(N(C)C)c(=O)n(C)c1C [Compound 11] | 6.094 | 7.215 |  |  |
| CCc1c(C)[nH]c(=O)c(N)c1Cc1cc(C)cc(C)c1 [Compound 5] | 5.636 | 6.261 |  |  |
| CCc1c(C)[nH]c(=O)c(N)c1Cc1ccc(Cl)cc1 [Compound 54] | <5 | <4 |  |  |
| CCc1c(C)[nH]c(=O)c(N(C)CC)c1C(=O)c1cccc(Br)c1 [Compound 185] | 7.433 | 8.745 |  |  |
| CCc1c(C)[nH]c(=O)c(N(C)C)c1Cc1cn(C)c2ccccc12 [Compound 43] | 6.422 | 7.377 |  |  |
| CCc1c(C)[nH]c(=O)c(N(C)C(C)COC)c1Cc1cc(C)cc(C)c1 (centres unmarked) [Compound 129] | 7.057 | 8.398 |  |  |
| CCc1c(C)[nH]c(=O)c(N)c1Cc1cccc(F)c1 [Compound 41] | 4.473 | 5.131 |  |  |
| CCc1c(C)[nH]c(=O)c(N(C)C)c1Oc1cc(C)cc(C)c1 [Compound 201] |  |  | 7.231 | 8.585 |
| CCc1[nH]c(=O)c(N)c(Cc2cc(C)cc(C)c2)c1C [Compound 27] | 5.098 | 5.949 |  |  |
| CCc1c(C)[nH]c(=O)c(N)c1Cc1cccc(Cl)c1 [Compound 39] | 4.751 | 5 |  |  |
| CCc1c(C)[nH]c(=O)c(N(C)C)c1C(O)Cc1cccc(C)c1 (centres unmarked) [Compound 165] | <4 | 4.354 |  |  |
| CCc1cccc(Cc2c(CC)c(C)[nH]c(=O)c2N(C)C)c1 [Compound 99] | 6.718 | 8.569 |  |  |
| CCc1c(C)[nH]c(=O)c(N(C)C)c1C(O)c1cc(C)cc(C)c1 (centres unmarked) [Compound 48] | 6.711 | 8 |  |  |
| CCc1c(C)[nH]c(=O)c(N(C)C)c1C(=O)c1cc(Cl)cc(Cl)c1 [Compound 192] | 8.319 | 8.699 |  |  |
| CCc1c(C)[nH]c(=O)c(N(C)C)c1Cc1cc(F)cc(F)c1 [Compound 38] | 7.402 | 8.155 |  |  |
| CCc1c(C)[nH]c(=O)c(N(C)C)c1Cc1cccnc1 [Compound 44] | 6.355 | 7.889 |  |  |
| CCc1c(C)[nH]c(=O)c(N(C)CC)c1Cc1cc(C)cc(C)c1 [Compound 56] | 7.11 | 8.194 |  |  |
